Measurements reported in patent US20010014357A1, “Citrus peel extract as inhibitor of ACYL coa-cholesterol-o-acyltransferase, inhibitor of macrophage-lipid complex accumulation on the arterial wall and preventive or treating agent for hepatic diseases” (priority 1997, published 2001).

Experiments:
[1] = tested on: hepatic cells (fatty liver); test: Histopathological observation of the livers of cholesterol-fed rabbits; format: in vivo, New Zealand White rabbits; settings: 1% cholesterol diet plus 0.1% flavonoid or 1 mg/kg Lovastatin, eight weeks, H&E stain
Procedure: The same procedure as in (Step 1) was repeated except that 40 three-month-old New Zealand White rabbits (Yeonam Horticulture and Animal Husbandry College, Korea) each weighing about 2.5 to 2.6 kg were used in place of the rats, and the rabbits were fed for eight weeks with four different diets, i.e., RC4 diet containing 1% cholesterol (Control group); 1% cholesterol plus 1 mg/kg Lovastatin® (Comparative group); 1% cholesterol plus 0.1% hesperidin; and 1% cholesterol plus 0.1% naringin, respectively.
Thereafter, the livers were separated from the rabbits and the histopathological observations were carried out as follows.
The rabbits were anesthetized with an intramuscular injection of ketamine (75 mg/kg) and subjected to an abdominal incision. […] The fixed liver was washed sufficiently with water, dehydrated stepwise with 70%, 80%, 90% and 100% ethanol and, then, embedded in paraffin. The embedded liver was sectioned in 4 μm thickness with a microtome and stained with hematoxylin and eosin. The stained liver specimen was made transparent with xylene, mounted with permount, and then observed under a microscope to confirm the presence of lesions.

[2] = tested on: macrophage-lipid complex accumulated on the arterial endothelium; test: Analysis for fatty streak (macrophage-lipid complex) in the main artery of cholesterol-fed rabbits; format: in vivo, New Zealand White rabbits; settings: 1% cholesterol diet plus 0.1% flavonoid or 1 mg/kg Lovastatin; for area of macrophage-lipid complex accumulated on the arterial endothelium compared to the control group / M-L (macrophage-lipid) complex area: 6 weeks; for layer of macrophage-lipid complex observed on the arterial endothelium (FIGS. 1B-1D): control shows a thick layer; for M-L (macrophage-lipid) complex area: Oil Red O stained area as proportion of total arterial area, control group 35
Excerpt: RC4 diet comprises 7.6% moisture, 22.8% crude protein, 2.8% crude fat, 8.8% crude ash, 14.4% crude cellulose and 43.6% soluble nitrogen-free substances. The rabbits were bred for 6 weeks while being allowed free access to the diets and water. The rabbits bred in (Step 1) were sacrificed and their chest were incised. The main artery was cut out therefrom in a length of about 5 cm downward from the site 1 cm above the aortic valve and the fat surrounding the main artery was removed. The main artery was incised in the middle along the longitudinal axis and pinned to a dish. The moist artery was photographed and, then, staining of fatty streak was carried out in accordance with the method of […]., et al.(J. Lab. Clin. […] A part of the incised main artery was washed three times by 2 min. with anhydrous propylene glycol and stained for 30 min. with a saturated solution of Oil Red O (ORO, Sigma Co.) dissolved in propylene glycol. Thereafter, the artery was washed twice by 3 min. with 85% propylene glycol to remove remaining staining solution and, then washed with physical saline. The artery was photographed and the photograph was traced. The area of stained region (fatty streak region) was determined with an image analyzer (LEICA, Q-600, Germany) and its proportion(%) to the total arterial area was calculated. On the other hand, the other part of the main artery was stained in accordance with hematoxylin-eosin (H&E) and Masson's trichrome staining methods and observed under a microscope to confirm whether the macrophage-lipid complexes were accumulated in the intima, internus, elastic lamina and media.

[3] = Blood total cholesterol and triglyceride levels in cholesterol-fed rabbits; format: in vivo, New Zealand White rabbits; settings: 1% cholesterol diet plus 0.1% flavonoid or 1 mg/kg Lovastatin, 6 weeks
Procedure: RC4 diet comprises 7.6% moisture, 22.8% crude protein, 2.8% crude fat, 8.8% crude ash, 14.4% crude cellulose and 43.6% soluble nitrogen-free substances. The rabbits were bred for 6 weeks while being allowed free access to the diets and water. Further, blood samples were taken from the rabbits and total cholesterol and triglyceride levels were determined in accordance with the same procedure in Example 5.

[4] = Serum GOT and GPT levels in rats on a high-cholesterol diet; format: in vivo, Sprague-Dawley rats; settings: 1% cholesterol diet plus 0.02% naringin or citrus peel extract (0.04% hesperidin equivalent), six weeks
Excerpt: 30 four-week-old Sprague-Dawley rats (Taihan laboratory animal center, Korea) each weighing about 90 to 110 g were evenly divided into three dietary groups by a randomized block design. The rats of the three groups were fed with three different high-cholesterol diets, i.e., AIN-76 laboratory animal diet (ICN Biochemicals, Cleveland, Ohio, U.S.A.) containing 1% cholesterol(Control group), 1% cholesterol plus 0.02% naringin, and 1% cholesterol plus citrus peel extract prepared in Example 2(1) in an amount equivalent to 0.04% hesperidin, respectively.
The effect of administering naringin and citrus peel extract to rats on the function of the liver was examined as follows.
Blood samples were taken from the rats of the three dietary groups and serum GOT (glutamate-oxaloacetate transaminase) and GPT (glutamate-pyruvate transaminase) levels were determined in accordance with the method of Reitman and Frankel (Reitman, S. and J. S. Frankel, Am. J. Clin. Pathol., 28, 56 (1956)). GOT and GPT are synthesized in the liver and heart, and released into blood stream upon the damage of these organs. Accordingly, GOT and GPT are representative markers of the liver-function and high serum GOT and GPT levels mean severe damage of the liver.

[5] = Serum GOT, GPT and γGTP levels in men given oral naringin; format: in vivo, human; settings: person, oral 10 mg/kg daily, day 68
Procedure: Naringin was orally administered to a person at a daily dose of 10 mg/kg for 68 days and serum GOT, GPT and γGTP levels were determined just before the administration (day 0), and 45 and 68 days after the administration (day 45 and day 68), respectively. Consequently, serum GOT- levels at day 45 and day 68 decreased by 17%, respectively, in comparison to that of day 0. Serum GPT levels at day 45 and day 68 decreased by 15% and 19%, respectively, in comparison to that of day 0. Further, serum γGTP levels at day 45 and day 68 decreased by 25% and 51%, respectively, in comparison to that of day 0.
On the other hand, naringin was orally administered to a person, who had drunk alcoholic beverages habitually in an amount of 100 cc per day, at a daily dose of 6 mg/kg for 30 days and serum γGTP level was determined just before the administration (day 0) and 30 days after the administration (day 30). Consequently, initial serum γGTP level at day 0 was 129 IU/l, while that of day 30 decreased to 69 IU/l which is within the normal range.

Compound | microscopic features of the hepatic cells (FIGS. 2B-2D) [1] | area of macrophage-lipid complex accumulated on the arterial endothelium compared to the control group [2] | layer of macrophage-lipid complex observed on the arterial endothelium (FIGS. 1B-1D) [2] | M-L (macrophage-lipid) complex area [2] | Total cholesterol [3] | Triglyceride [3] | serum GOT level, lower than that of the control group [4] | serum GPT level, lower than that of the control group [4] | decrease of serum γGTP level in comparison to day 0 [5]
CC[C@H](C)C(=O)O[C@H]1C[C@@H](C)C=C2C=C[C@H](C)[C@H](CC[C@@H]3C[C@@H](O)CC(=O)O3)[C@H]21 [Lovastatin, reference compound] | irregularly arranged and enlarged and a large amount of fat is deposited therein | decreased significantly | no or very thin layers |  |  |  |  |  | 
COc1ccc([C@@H]2CC(=O)c3c(O)cc(O)cc3O2)cc1O [hesperetin] |  | decreased significantly |  | 13% | 1150 mg/dL | 41 mg/dL |  |  | 
COc1ccc([C@@H]2CC(=O)c3c(O)cc(O[C@@H]4O[C@H](CO[C@@H]5O[C@@H](C)[C@H](O)[C@@H](O)[C@H]5O)[C@@H](O)[C@H](O)[C@H]4O)cc3O2)cc1O [hesperidin] | normal and the deposition of fat is not observed | decreased significantly | no or very thin layers | 13.5% | 1130 mg/dL | 40 mg/dL |  |  | 
O=C1C[C@@H](c2ccc(O)cc2)Oc2cc(O)cc(O)c21 [naringenin] |  | decreased significantly |  |  |  |  |  |  | 
C[C@@H]1O[C@@H](O[C@H]2[C@H](Oc3cc(O)c4c(c3)O[C@H](c3ccc(O)cc3)CC4=O)O[C@H](CO)[C@@H](O)[C@@H]2O)[C@H](O)[C@H](O)[C@H]1O [naringin] | normal and the deposition of fat is not observed | decreased significantly | no or very thin layers |  |  |  | about 30% | ~10% | 51%
